This passage reports TGI and GI50 results from PubChem BioAssay (NCI).

Among the test systems are DU-145 prostate; HOP-92 NSCLC; MCF7 breast; NCI-H226 lung; NCI-H522 lung; NCI/ADR-RES ovarian; OVCAR-3 ovarian; OVCAR-5 ovarian; RXF 393 renal; MDA-N.
Common to all, as to assay: NCI tumour cell line growth inhibition, 48 h

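Following 48 hours of exposure in 96-well plates, responses at five concentrations were used to interpolate endpoints linearly. Abbreviation: GI50, concentration required for 50% inhibition of growth. TGI: concentration producing complete growth inhibition.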

As to `COc1cc2c(cc1O)NC(=O)[C@@H]1C[C@@H](O)CN1C2=O`, the TGI with DU-145 prostate, in the test on HOP-92 NSCLC, in the test with MCF7 breast, in the test on NCI-H226 lung, in the test with NCI-H522 lung and with NCI/ADR-RES ovarian was > 100 µM each time. The TGI in the test on OVCAR-3 ovarian, with OVCAR-5 ovarian and in the test with RXF 393 renal was > 100 µM throughout.
In the case of `COc1ccc(O[C@H](CO)C[C@@H]2COC(C)(C)O2)cc1`, the TGI in the test with DU-145 prostate, in the test with MCF7 breast, in the test with MDA-N, in the test with NCI-H226 lung, with NCI-H522 lung and in the test on NCI/ADR-RES ovarian was > 100 µM each time. In addition, the TGI in the test with OVCAR-3 ovarian, in the test on OVCAR-5 ovarian and in the test on RXF 393 renal was > 100 µM in each case.
For `CC(=O)c1c(-c2ccc(Cl)cc2)c(C#N)c(=S)n(C2OC(CO)C(O)C(O)C2O)c1C` (centres undefined), the TGI with DU-145 prostate is > 100 µM; in the test on HOP-92 NSCLC it was 65.6 µM; in the test with MDA-N, 86.8 µM; in the test with NCI-H226 lung it was > 100 µM; with NCI-H522 lung, > 100 µM; in the test on NCI/ADR-RES ovarian, > 100 µM. For the same molecule, the TGI with OVCAR-3 ovarian, with OVCAR-5 ovarian and in the test with RXF 393 renal was > 100 µM in each case.
Consider `CN1C(c2ccccc2)CC(O)CC1c1ccccc1` (centres undefined), for which the TGI in the test on HOP-92 NSCLC, with NCI-H226 lung, with NCI-H522 lung, in the test on OVCAR-3 ovarian, with OVCAR-5 ovarian and in the test on RXF 393 renal was > 100 µM throughout.
With `O=C(Nc1ccc(-n2cc(-c3ccncc3)c(-c3ccc(O)c(Cl)c3)n2)cc1)Nc1cc(C(F)(F)F)cc(C(F)(F)F)c1`, the GI50 in the test with DU-145 prostate was 5.97 µM; in the test with HOP-92 NSCLC, 1.64 µM; in the test on MCF7 breast it was 3.3 µM; in the test with NCI-H226 lung, 13.3 µM; with NCI-H522 lung it was 3.79 µM; with NCI/ADR-RES ovarian it was 4.94 µM. Moreover, the GI50 in the test on OVCAR-3 ovarian is 2.73 µM; in the test on OVCAR-5 ovarian, 3.17 µM; in the test with RXF 393 renal, 2.54 µM. The TGI is 18.9 µM with DU-145 prostate; 5.74 µM with HOP-92 NSCLC; 13.2 µM in the test on MCF7 breast; 29.4 µM with NCI-H226 lung; 15 µM in the test with NCI-H522 lung; 22.5 µM in the test on NCI/ADR-RES ovarian. For the same molecule, the values for the TGI in the test with OVCAR-3 ovarian, in the test on OVCAR-5 ovarian and with RXF 393 renal were 6.76 µM, 12.7 µM and 6.9 µM, respectively.
In the case of `COc1ccc(S(=O)(=O)NC(CCC(=O)NC(N)=O)C(=O)NC(N)=O)cc1` (centres undefined), the TGI with DU-145 prostate, in the test on HOP-92 NSCLC, in the test on MCF7 breast, in the test with MDA-N, in the test with NCI-H226 lung and in the test with NCI-H522 lung was > 100 µM throughout. In addition, the TGI in the test on NCI/ADR-RES ovarian, in the test with OVCAR-3 ovarian and in the test with OVCAR-5 ovarian was > 100 µM in each case.
In the case of `COc1cc2c(cc1OC)C1=C(C=O)c3ccc(OC)c(OC)c3C(O)N1CC2` (centres undefined), the TGI is 87.5 µM with DU-145 prostate; > 100 µM in the test on MCF7 breast; > 100 µM with MDA-N; > 100 µM in the test on NCI-H226 lung; 75.2 µM with NCI-H522 lung; 79.6 µM in the test with NCI/ADR-RES ovarian. Besides, the TGI with OVCAR-3 ovarian and in the test on OVCAR-5 ovarian was > 100 µM in each case.
Turning to `O=C(O)C1CCC(=O)N1C(=O)COc1cc(Cl)c(Cl)cc1Cl` (centres undefined), the TGI in the test with HOP-92 NSCLC, with NCI-H226 lung, in the test on NCI-H522 lung, in the test with OVCAR-3 ovarian and in the test on OVCAR-5 ovarian was > 100 µM in each case.
Take `COC1=C(OC)C(=O)C(Cc2c(Cl)nc3sccn23)=C(C)C1=O`: the TGI in the test on DU-145 prostate came out at 27.2 µM; in the test with MCF7 breast, 26.8 µM; with NCI-H522 lung, 20.2 µM; in the test on NCI/ADR-RES ovarian it was 20 µM; in the test with OVCAR-3 ovarian, 25.8 µM; in the test with OVCAR-5 ovarian it was 31.7 µM. In the test on RXF 393 renal, this molecule returned a TGI of 31.1 µM.
For `CC(=O)OC12c3ccccc3C(c3ccccc31)C1C(=O)N(N=C(C)C)C(=O)C12` (centres undefined), the TGI in the test on DU-145 prostate, in the test with MCF7 breast, with MDA-N, in the test with NCI-H226 lung, with NCI/ADR-RES ovarian and with OVCAR-3 ovarian was > 100 µM in each case. Besides, the TGI with OVCAR-5 ovarian and with RXF 393 renal was > 100 µM each time.
Turning to `COCOC1CCCC[C@@]1(OCCOCCO[C@@]1(c2ccccc2)CCCC[C@H]1OCOC)c1ccccc1` (some centres undefined), the TGI in the test on NCI-H226 lung, in the test on NCI-H522 lung, in the test on OVCAR-3 ovarian, with OVCAR-5 ovarian and in the test on RXF 393 renal was > 100 µM each time.
For the molecule `CN(C)c1cccc2c(S(=O)(=O)NCCN)cccc12`, the TGI in the test on DU-145 prostate, in the test on HOP-92 NSCLC, in the test on MDA-N, with NCI-H226 lung, with NCI-H522 lung and in the test on NCI/ADR-RES ovarian was > 100 µM throughout. For the same molecule, the TGI in the test with OVCAR-3 ovarian, in the test on OVCAR-5 ovarian and in the test on RXF 393 renal was > 100 µM throughout.
Consider `COc1cc(C2c3cc4c(cc3[C@@H](Nc3ccc(F)cc3)C3COC[C@H]23)OCO4)cc(OC)c1O` (some centres undefined), for which the TGI in the test with MCF7 breast is > 25 µM; in the test with MDA-N, > 25 µM; in the test with NCI-H522 lung, > 25 µM; in the test on NCI/ADR-RES ovarian, > 25 µM; with OVCAR-5 ovarian it was 14.1 µM.
As to `COc1ccc(/C(C=O)=C(\Cl)c2ccc(OC)c(OC)c2)cc1`, the TGI with NCI-H226 lung was > 100 µM; in the test on NCI-H522 lung, 33.5 µM; in the test on OVCAR-3 ovarian it was > 100 µM; with OVCAR-5 ovarian, > 100 µM; in the test with RXF 393 renal it was > 100 µM.
`NCCCNc1nc2ccccc2c2c(=O)c3cc(Cl)ccc3sc12`: the GI50 was 1.84 µM with DU-145 prostate; 1.28 µM in the test with HOP-92 NSCLC; 8.54 µM in the test on NCI-H226 lung; 1.66 µM with NCI-H522 lung; 1.67 µM with OVCAR-5 ovarian. Moreover, the TGI in the test on DU-145 prostate was found to be 3.27 µM; in the test with HOP-92 NSCLC, 3.35 µM; in the test with NCI-H226 lung, 74.2 µM; with NCI-H522 lung it was 3.14 µM; in the test with OVCAR-5 ovarian it was 3.14 µM.
As for `COC(=O)c1c(O)ccc2c1c1c(n2Cc2ccc(OC)cc2)C(=O)c2ccccc2C1`, the TGI in the test on DU-145 prostate, in the test with MCF7 breast, in the test on MDA-N, in the test on NCI-H226 lung, in the test with NCI/ADR-RES ovarian and with OVCAR-3 ovarian was > 100 µM throughout. This molecule also returned a TGI in the test with RXF 393 renal of 79.9 µM.
